In one assay the target is T1, FLT3 (Homo sapiens, UniProt P36888).
T1 construct: purchased Eurofins
T1 sequence (P36888 27-993): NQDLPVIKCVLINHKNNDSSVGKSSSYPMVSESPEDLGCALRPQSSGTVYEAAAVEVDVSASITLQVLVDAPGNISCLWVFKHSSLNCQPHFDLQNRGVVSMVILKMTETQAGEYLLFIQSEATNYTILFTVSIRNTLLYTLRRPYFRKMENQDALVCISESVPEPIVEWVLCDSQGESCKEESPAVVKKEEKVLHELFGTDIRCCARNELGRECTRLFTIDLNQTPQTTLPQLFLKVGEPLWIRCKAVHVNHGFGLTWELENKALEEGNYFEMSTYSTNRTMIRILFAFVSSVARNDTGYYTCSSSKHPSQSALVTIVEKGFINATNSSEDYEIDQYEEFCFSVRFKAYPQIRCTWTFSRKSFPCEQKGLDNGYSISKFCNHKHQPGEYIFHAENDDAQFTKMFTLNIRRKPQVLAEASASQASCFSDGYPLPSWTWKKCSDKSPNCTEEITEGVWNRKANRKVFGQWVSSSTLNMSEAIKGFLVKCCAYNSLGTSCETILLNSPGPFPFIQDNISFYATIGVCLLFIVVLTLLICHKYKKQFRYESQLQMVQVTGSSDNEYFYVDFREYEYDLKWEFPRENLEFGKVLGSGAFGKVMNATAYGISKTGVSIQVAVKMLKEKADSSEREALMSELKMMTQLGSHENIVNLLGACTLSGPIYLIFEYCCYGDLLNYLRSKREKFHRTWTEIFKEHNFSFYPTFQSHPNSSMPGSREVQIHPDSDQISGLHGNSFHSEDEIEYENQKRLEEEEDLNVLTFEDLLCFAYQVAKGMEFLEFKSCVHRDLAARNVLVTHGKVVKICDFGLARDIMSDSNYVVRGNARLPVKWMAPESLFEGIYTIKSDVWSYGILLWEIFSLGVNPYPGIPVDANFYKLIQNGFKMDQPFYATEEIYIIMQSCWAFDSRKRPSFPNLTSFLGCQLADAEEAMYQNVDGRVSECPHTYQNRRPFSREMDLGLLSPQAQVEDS
Nature of the assay: In vitro kinase activity experiment, FLT3. The settings on record: 40 min; inhibition rate of enzyme at 500 nM; measured by Eurofins; read-out: Kinase activity @ 500 nM (%) FLT3. Format: biochemical. Here is the method: (§1) Buffer solution ([…], pH 7.0, 0.2 mm EDTA, 10 mM mncl2), kinase to be tested, substrate of kinase to be tested, 10 mM magnesium acetate and γ33P-ATP solution, and compounds with different concentrations were added to a reaction tube in turn, then MgATP was added to initiate the enzyme reaction process, and incubated at room temperature for 40 min. Then, the reaction was terminated with 5 μl of […], and 10 μl of the reaction solution was titrated onto the Filtermat A membrane, washed with 75 mM phosphate solution for three times, each time for 5 min., and then washed with methanol once. Finally, the Filtermat A membrane was dried and the scintillation count was carried out.

The next assay deals with SET-2 cells (JAK2 V617F). Nature of the assay: Inhibition of cell proliferation by MTT experiment, SET-2. Format: cell-based. The settings on record: Homo sapiens, SET-2; MTT, 72 h; read-out: IC50 value on cell proliferation inhibition, SET-2 (V617F). From the text: (§2) MV4-11, MOLM-13 and SET-2 were used to determine the influence of the test compound of the present invention on the activity of cancer cells. MV4-11 and MOLM-13 were human leukemia cell lines from American Type Culture Collection (ATCC), expressing FLT3 receptor and containing FLT3-ITD mutation; and SET-2 was a primary thrombocythemia cell purchased from Chengdu Bowerston Biotechnology Co., Ltd., China, continuously expressing JAK2 receptor and containing the mutation of V617F.
(§3) MV4-11, MOLM-13 and SET-2 cells were filled in a 96-well petri dish with 100 μL IMDM as the medium, containing 10% fetal bovine serum (100 mL/bottle, purchased from Grassland Lvye Bio-Engineering Materials Co., Ltd. and cryopreserved at −20° C.), and with 10,000-15,000 cells in each well. […] In each group, 3-5 replicate wells were set and incubated in 5% CO2 at 37° C. for 72 h. At the endpoint, 20 μL MTT (5 mg/mL) was added to each well, and the cells were incubated for another 1-3 h.
(§4) After the inhibition rate of each concentration of compound on cell proliferation activity was calculated, the dose-response curve and IC50 value were fitted by Graphpad prism software according to the compound treatment concentrations and corresponding inhibition rates.

The subject of assay [1] is MV4-11 cells (FLT3-ITD+/+). Nature of the assay: Inhibition of cell proliferation by MTT experiment, MV4-11. It counts as cell-based, human. The settings on record: Homo sapiens, MV4-11; MTT, 72 h; read-out: IC50 value on cell proliferation inhibition, MV4-11 FLT3-ITD+/+.
Text: as §2, §3, §4

Assay [2] has as its system MOLM-13 cells (FLT3-ITD-/+). As to the kind of experiment: Inhibition of cell proliferation by MTT experiment, MOLM-13. Format: cell-based, human. The settings on record: Homo sapiens, MOLM-13; MTT, 72 h; read-out: IC50 value on cell proliferation inhibition, MOLM-13 FLT3-ITD-/+.
Text: as §2, §3, §4

Another assay addresses T2, JAK2 (Homo sapiens, UniProt O60674).
T2 construct: purchased Eurofins
As to the kind of experiment: In vitro kinase activity experiment, JAK2. It counts as biochemical. The following applies: inhibition rate of enzyme at 500 nM; measured by Eurofins. On the procedure:
as §1

Structures are written as SMILES. pIC50: −log10 of the molar value. A value given as a limit tells only on which side of the number the result lay.

T2 sequence (O60674 whole entry): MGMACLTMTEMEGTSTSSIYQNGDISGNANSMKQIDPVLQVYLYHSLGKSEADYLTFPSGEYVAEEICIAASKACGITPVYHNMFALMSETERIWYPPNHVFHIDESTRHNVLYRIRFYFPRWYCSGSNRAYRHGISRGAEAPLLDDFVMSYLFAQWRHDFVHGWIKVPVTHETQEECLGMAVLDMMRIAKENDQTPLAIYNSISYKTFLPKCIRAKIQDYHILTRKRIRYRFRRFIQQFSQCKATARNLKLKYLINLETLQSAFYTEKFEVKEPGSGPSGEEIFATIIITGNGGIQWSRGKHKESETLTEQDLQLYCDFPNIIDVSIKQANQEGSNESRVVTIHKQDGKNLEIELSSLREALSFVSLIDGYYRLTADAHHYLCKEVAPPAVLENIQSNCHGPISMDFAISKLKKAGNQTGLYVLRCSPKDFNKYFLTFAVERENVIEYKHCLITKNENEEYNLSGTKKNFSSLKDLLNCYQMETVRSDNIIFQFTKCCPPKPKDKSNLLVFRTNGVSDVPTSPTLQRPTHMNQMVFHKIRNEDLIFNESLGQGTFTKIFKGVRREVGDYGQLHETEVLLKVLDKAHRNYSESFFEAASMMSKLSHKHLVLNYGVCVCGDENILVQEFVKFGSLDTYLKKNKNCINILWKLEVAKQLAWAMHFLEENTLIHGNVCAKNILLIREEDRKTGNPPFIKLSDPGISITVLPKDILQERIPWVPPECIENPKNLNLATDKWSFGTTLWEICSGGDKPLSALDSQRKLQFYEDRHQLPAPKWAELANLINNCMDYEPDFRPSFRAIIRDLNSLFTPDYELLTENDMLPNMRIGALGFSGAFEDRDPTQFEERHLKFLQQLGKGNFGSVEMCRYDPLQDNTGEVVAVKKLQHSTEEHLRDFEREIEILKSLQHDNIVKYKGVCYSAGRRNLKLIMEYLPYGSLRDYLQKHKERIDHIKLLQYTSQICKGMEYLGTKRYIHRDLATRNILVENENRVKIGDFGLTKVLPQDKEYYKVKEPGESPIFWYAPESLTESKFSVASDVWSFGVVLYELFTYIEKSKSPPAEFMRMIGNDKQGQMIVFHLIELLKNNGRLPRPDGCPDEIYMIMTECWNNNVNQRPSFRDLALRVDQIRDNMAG

With `CC(C)N1CCN(Cc2ccc(Nc3ncc(F)c(-c4ccc(CN5CCCC5)o4)n3)nc2)CC1` [CLJ-1, 5-fluoro-N-(5-((4-isopropylpiperazine-1-yl)methyl)pyridine-2-yl)-4-(5-(pyrrolidine-1-ylmethyl)furan-2-yl) pyrimidine-2-amine], at FLT3, the inhibition at 0.5 µM was found to be 33%. The pIC50 with SET-2 cells (JAK2 V617F) is under 6.00; in assay [1], 6.00 to 7.00; in assay [2], 6.00 to 7.00. In addition, the “Kinase activity @ 500 nM (%) JAK2” value on JAK2 is 46%.
Turning to `CCN1CCN(c2ccc(Nc3ncc(F)c(-c4ccc(CN5CCCC5)o4)n3)nc2)CC1` [CLJ-2], on FLT3, the inhibition at 0.5 µM worked out at 25%. Moreover, the figures for the pIC50 (in the assay on SET-2 cells (JAK2 V617F); in assay [1]; in assay [2]) were under 6.00, 6.00 to 7.00 and 6.00 to 7.00, respectively. In addition, on JAK2, the “Kinase activity @ 500 nM (%) JAK2” value is listed as 30%.
Take `CC(C)N1CCN(Cc2ccc(Nc3ncc(F)c(-c4ccc(CN5CCc6ccccc65)o4)n3)nc2)CC1` [CLJ-3, 5-fluoro-4-(5-(dihydroindole-1-ylmethyl)furan-2-yl)-N-(5-((4-isopropylpiperazine-1-yl)methyl)pyridine-2-yl) pyrimidine-2-amine]: the inhibition at 0.5 µM at FLT3 worked out at 29%. Also, the values for the pIC50 (in the assay with SET-2 cells (JAK2 V617F); in assay [1]; in assay [2]) were under 6.00, 6.00 to 7.00 and 6.00 to 7.00, respectively. Further, the “Kinase activity @ 500 nM (%) JAK2” value on JAK2 came out at 45%.
Turning to `CCCn1cc(-c2nc(Nc3cc(CN4CCCC(C)C4)c(F)cn3)ncc2F)cn1` (stereo not drawn) [CLJ-4, 5-fluoro-N-(5-fluoro-4-((3-methylpiperidine-1-yl)methyl)pyridine-2-yl)-4-(1-propyl-1H-pyrazole-4-yl) pyrimidine-2-amine], the inhibition at 0.5 µM on FLT3 worked out at 28%. For the same compound, the pIC50 with SET-2 cells (JAK2 V617F) is under 6.00; in assay [1], 6.00 to 7.00; in assay [2], 6.00 to 7.00. In addition, the “Kinase activity @ 500 nM (%) JAK2” value on JAK2 was 38%.
`CCCn1cc(-c2nc(Nc3cc(CN4CCN(CC)CC4)c(F)cn3)ncc2F)cn1` [CLJ-5, 5-fluoro-N-(5-fluoro-4-((4-ethylpiperazine-1-yl)methyl)pyridine-2-yl)-4-(1-propyl-1H-pyrazole-4-yl) pyrimidine-2-amine]: the inhibition at 0.5 µM at FLT3 was determined as 34%. The pIC50 is under 6.00 in the assay on SET-2 cells (JAK2 V617F), 6.00 to 7.00 in assay [1] and 6.00 to 7.00 in assay [2]. Also, on JAK2, the “Kinase activity @ 500 nM (%) JAK2” value was determined as 40%.
Take `CCCn1cc(-c2nc(Nc3ccc(N4CCN(C)CC4)cc3F)ncc2F)cn1` [CLJ-6, 5-fluoro-N-(2-fluoro-4-(4-methylpiperazine-1-yl)phenyl)-4-(1-propyl-1H-pyrazol-4-yl) pyrimidine-2-amine]: the inhibition at 0.5 µM at FLT3 worked out at 34%. Besides, the pIC50 (in the assay with SET-2 cells (JAK2 V617F); in assay [1]; in assay [2]) was under 6.00 each time. Further, the “Kinase activity @ 500 nM (%) JAK2” value at JAK2 is 30%.
`CCCn1cc(-c2nc(Nc3ccc(N4CCN(C)CC4)c(F)c3)ncc2F)cn1` [CLJ-7, 5-fluoro-N-(3-fluoro-4-(4-methylpiperazine-1-yl)phenyl)-4-(1-propyl-1H-pyrazol-4-yl) pyrimidine-2-amine]: the inhibition at 0.5 µM on FLT3 stood at 28%. Moreover, the figures for the pIC50 (in the assay with SET-2 cells (JAK2 V617F); in assay [1]; in assay [2]) were under 6.00, 6.00 to 7.00 and 6.00 to 7.00, respectively. Further, at JAK2, the “Kinase activity @ 500 nM (%) JAK2” value is 38%.
Regarding `CCCn1cc(-c2nc(Nc3ccc(N4CCN(CC)CC4)cc3F)ncc2F)cn1` [CLJ-8, 5-fluoro-N-(2-fluoro-4-(4-ethylpiperazine-1-yl)phenyl)-4-(1-propyl-1H-pyrazole-4-yl) pyrimidine-2-amine], on FLT3, the inhibition at 0.5 µM is 40%. Further, the pIC50 in the assay with SET-2 cells (JAK2 V617F) is under 6.00; in assay [1], 6.00 to 7.00; in assay [2], 6.00 to 7.00. Besides, on JAK2, the “Kinase activity @ 500 nM (%) JAK2” value is recorded as 30%.
Regarding `CCCn1cc(-c2nc(Nc3ccc(N4CCN(CC)CC4)c(F)c3)ncc2F)cn1` [CLJ-9, 5-fluoro-N-(3-fluoro-4-(4-ethylpiperazine-1-yl)phenyl)-4-(1-propyl-1H-pyrazole-4-yl) pyrimidine-2-amine], the inhibition at 0.5 µM at FLT3 stood at 20%. Besides, the pIC50 was under 6.00 in the assay on SET-2 cells (JAK2 V617F), 7.00 to 8.00 in assay [1] and 6.00 to 7.00 in assay [2]. Besides, on JAK2, the “Kinase activity @ 500 nM (%) JAK2” value is on record as 27%.
On to `CCCCn1cc(-c2nc(Nc3ccc(N4CCN(C)CC4)c(F)c3)ncc2F)cn1` [CLJ-10, 5-fluoro-N-(3-fluoro-4-(4-methylpiperazine-1-yl)phenyl)-4-(1-butyl-1H-pyrazol-4-yl) pyrimidine-2-amine], for which the inhibition at 0.5 µM on FLT3 stood at 25%. Moreover, the pIC50 is under 6.00 in the assay on SET-2 cells (JAK2 V617F), under 6.00 in assay [1] and 6.00 to 7.00 in assay [2]. In addition, the “Kinase activity @ 500 nM (%) JAK2” value on JAK2 is recorded as 37%.
As to `CCCN1CCC(n2cc(-c3nc(Nc4ccc(N5CCN(C)CC5)cc4)ncc3F)cn2)CC1` [CLJ-11, 5-fluoro-N-(4-(4-methylpiperazine-1-yl)phenyl)-4-(1-(1-propylpiperidine-4-yl)-1H-pyrazole-4-yl) pyrimidine-2-amine], at FLT3, the inhibition at 0.5 µM turned out to be 94%. Also, the pIC50 in the assay on SET-2 cells (JAK2 V617F) was under 6.00; in assay [1], 7.00 to 8.00; in assay [2] it was 6.00 to 7.00. Moreover, the “Kinase activity @ 500 nM (%) JAK2” value on JAK2 stood at 78%.
Consider `CCCN1CCC(n2cc(-c3nc(Nc4ccc(N5CCN(C)CC5)c(F)c4)ncc3F)cn2)CC1` [CLJ-12, 5-fluoro-N-(3-fluoro-4-(4-methylpiperazine-1-yl)pheny)-4-(1-(1-propylpiperidine-4-yl)-1H-pyrazole-4-yl) pyrimidine-2-amine], for which, at FLT3, the inhibition at 0.5 µM was found to be 20%. For the same compound, the pIC50 (in the assay with SET-2 cells (JAK2 V617F); in assay [1]; in assay [2]) was under 6.00 in each case. In addition, the “Kinase activity @ 500 nM (%) JAK2” value on JAK2 worked out at 27%.
With `CCCCN1CCC(n2cc(-c3nc(Nc4ccc(N5CCN(C)CC5)c(F)c4)ncc3F)cn2)CC1` [CLJ-13, 5-fluoro-N-(3-fluoro-4-(4-methylpiperazine-1-yl)phenyl)-4-(1-(1-butylpiperidine-4-yl)-1H-pyrazole-4-yl) pyrimidine-2-amine], the inhibition at 0.5 µM on FLT3 was found to be 95%. The pIC50 is under 6.00 in the assay with SET-2 cells (JAK2 V617F), 7.00 to 8.00 in assay [1] and 6.00 to 7.00 in assay [2]. For the same compound, on JAK2, the “Kinase activity @ 500 nM (%) JAK2” value stood at 89%.
Turning to `Cc1c(-c2nc(Nc3ccc(N4CCN(C5CCN(C)CC5)CC4)c(F)c3)ncc2F)cnn1C` [CLJ-15], at FLT3, the inhibition at 0.5 µM is 94%. For the same compound, the results for the pIC50 (in the assay with SET-2 cells (JAK2 V617F); in assay [1]; in assay [2]) were under 6.00, 7.00 to 8.00 and 6.00 to 7.00, respectively. The “Kinase activity @ 500 nM (%) JAK2” value at JAK2 stood at 93%.
For the compound `CN1CCN(c2ccc(Nc3ncc(F)c(-c4cnn(C5CCCC5)c4)n3)cc2F)CC1` [CLJ-16, 5-fluoro-N-(3-fluoro-4-(4-methylpiperazine-1-yl)phenyl)-4-(1-cyclopentyl-1H-pyrazol-4-yl) pyrimidine-2-amine], the inhibition at 0.5 µM on FLT3 came to 95%. Besides, the pIC50 in the assay with SET-2 cells (JAK2 V617F) is under 6.00; in assay [1] it was 7.00 to 8.00; in assay [2] it was 6.00 to 7.00. Moreover, at JAK2, the “Kinase activity @ 500 nM (%) JAK2” value was 96%.

Values taken from patent US12428394B2, “2,4-disubstituted pyrimidine derivative, preparation method therefor and use thereof” (CHENGDU ZENITAR BIOMEDICAL TECHNOLOGY CO., LTD., priority 2019, dated 2025).
